Laboratory results as given in US9187472B2 (AbbVie Inc., priority 2012, dated 2015).

System: PC3 cells
Assay: NAMPT Cell Proliferation Assay
Type: cell-based
Conditions: Homo sapiens, PC-3, 120 h, 5 days incubation, cell viability by Cell Titer Glo
Procedure, shortened: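 Following overnight attachment in RPMI with 10% heat-inactivated FBS, PC3 cells at 500 per well receive compounds spanning 10 μM down to 1×10^−5 μM. Growth is assessed by luminescent viability read after 5 days.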

IC50 [nM]	SMILES
23.4	N#Cc1ccc(CC(=O)N2CCC(c3ccc(NC(=O)NCc4ccn5ccnc5c4)cc3)CC2)cc1 [Example 1050, 1-(4-{1-[(4-cyanophenyl)acetyl]piperidin-4-yl}phenyl)-3-(imidazo[1,2-a]pyridin-7-ylmethyl)urea]
0.313	COc1ccsc1C(=O)N1CCC(c2ccc(NC(=O)NCc3ccn4ccnc4c3)cc2)CC1 [Example 1051, 1-(imidazo[1,2-a]pyridin-7-ylmethyl)-3-(4-{1-[(3-methoxythiophen-2-yl)carbonyl]piperidin-4-yl}phenyl)urea]
27.1	N#Cc1cc(C(=O)N2CCC(c3ccc(NC(=O)NCc4ccn5ccnc5c4)cc3)CC2)ccc1F [Example 1052, 1-{4-[1-(3-cyano-4-fluorobenzoyl)piperidin-4-yl]phenyl}-3-(imidazo[1,2-a]pyridin-7-ylmethyl)urea]
3.41	O=C(NCc1ccn2ccnc2c1)Nc1ccc(C2CCN(C(=O)c3nc4c(s3)CCCC4)CC2)cc1 [Example 1053, 1-(imidazo[1,2-a]pyridin-7-ylmethyl)-3-{4-[1-(4,5,6,7-tetrahydro-1,3-benzothiazol-2-ylcarbonyl)piperidin-4-yl]phenyl}urea]
26	O=C(NCc1ccn2ccnc2c1)Nc1ccc(C2CCN(C(=O)c3nc4ccccc4s3)CC2)cc1 [Example 1054, 1-{4-[1-(1,3-benzothiazol-2-ylcarbonyl)piperidin-4-yl]phenyl}-3-(imidazo[1,2-a]pyridin-7-ylmethyl)urea]
4.38	CCc1cc(C(=O)N2CCC(c3ccc(NC(=O)NCc4ccn5ccnc5c4)cc3)CC2)on1 [Example 1055, 1-(4-{1-[(3-ethyl-1,2-oxazol-5-yl)carbonyl]piperidin-4-yl}phenyl)-3-(imidazo[1,2-a]pyridin-7-ylmethyl)urea]
1.3	C=CCn1nc(C)cc1C(=O)N1CCC(c2ccc(NC(=O)NCc3ccn4ccnc4c3)cc2)CC1 [Example 1056, 1-(imidazo[1,2-a]pyridin-7-ylmethyl)-3-[4-(1-{[3-methyl-1-(prop-2-en-1-yl)-1H-pyrazol-5-yl]carbonyl}piperidin-4-yl)phenyl]urea]
25.8	O=C(NCc1ccn2ccnc2c1)Nc1ccc(C2CCN(C(=O)c3ccc4snnc4c3)CC2)cc1 [Example 1057, 1-{4-[1-(1,2,3-benzothiadiazol-5-ylcarbonyl)piperidin-4-yl]phenyl}-3-(imidazo[1,2-a]pyridin-7-ylmethyl)urea]
2.49	CCc1nc(C(=O)N2CCC(c3ccc(NC(=O)NCc4ccn5ccnc5c4)cc3)CC2)cs1 [Example 1058, 1-(4-{1-[(2-ethyl-1,3-thiazol-4-yl)carbonyl]piperidin-4-yl}phenyl)-3-(imidazo[1,2-a]pyridin-7-ylmethyl)urea]
16.4	Cc1cc(C(=O)N2CCC(c3ccc(NC(=O)NCc4ccn5ccnc5c4)cc3)CC2)cnc1C [Example 1059, 1-(4-{1-[(5,6-dimethylpyridin-3-yl)carbonyl]piperidin-4-yl}phenyl)-3-(imidazo[1,2-a]pyridin-7-ylmethyl)urea]
2.29	O=C(NCc1ccn2ccnc2c1)Nc1ccc(C2CCN(C(=O)c3cccc4ncsc34)CC2)cc1 [Example 1060, 1-{4-[1-(1,3-benzothiazol-7-ylcarbonyl)piperidin-4-yl]phenyl}-3-(imidazo[1,2-a]pyridin-7-ylmethyl)urea]
7.84	O=C(NCc1ccn2ccnc2c1)c1ccc(C2CCN(C(=O)c3cc(Cl)ncc3F)CC2)cc1 [Example 1061, 4-{1-[(2-chloro-5-fluoropyridin-4-yl)carbonyl]piperidin-4-yl}-N-(imidazo[1,2-a]pyridin-7-ylmethyl)benzamide]
17	O=C(NCc1ccn2ccnc2c1)c1ccc(C2CCN(C(=O)c3cc(C4CC4)no3)CC2)cc1 [Example 1062, 4-{1-[(3-cyclopropyl-1,2-oxazol-5-yl)carbonyl]piperidin-4-yl}-N-(imidazo[1,2-a]pyridin-7-ylmethyl)benzamide]
1.89	COc1ccsc1C(=O)N1CCC(c2ccc(C(=O)NCc3ccn4ccnc4c3)cc2)CC1 [Example 1063, N-(imidazo[1,2-a]pyridin-7-ylmethyl)-4-{1-[(3-methoxythiophen-2-yl)carbonyl]piperidin-4-yl}benzamide]
4.12	Cc1oc(C(C)C)cc1C(=O)N1CCC(c2ccc(C(=O)NCc3ccn4ccnc4c3)cc2)CC1 [Example 1064, N-(imidazo[1,2-a]pyridin-7-ylmethyl)-4-(1-{[2-methyl-5-(propan-2-yl)furan-3-yl]carbonyl}piperidin-4-yl)benzamide]
1.43	CC(Oc1cccc(F)c1)C(=O)N1CCC(c2ccc(NC(=O)NCc3ccn4ccnc4c3)cc2)CC1 (stereo not shown) [Example 1065, 1-(4-{1-[2-(3-fluorophenoxy)propanoyl]piperidin-4-yl}phenyl)-3-(imidazo[1,2-a]pyridin-7-ylmethyl)urea]
5.7	O=C(NCc1ccn2ccnc2c1)Nc1ccc(C2CCN(C(=O)c3ncc(F)cc3F)CC2)cc1 [Example 1066, 1-(4-{1-[(3,5-difluoropyridin-2-yl)carbonyl]piperidin-4-yl}phenyl)-3-(imidazo[1,2-a]pyridin-7-ylmethyl)urea]

IC50 [nM]	SMILES
370	CC(C)(C)OC(=O)N1CCC(c2ccc(NC(=O)Cc3ccn4ccnc4c3)c(F)c2)CC1 [Example 1067, tert-butyl 4-{3-fluoro-4-[(imidazo[1,2-a]pyridin-7-ylacetyl)amino]phenyl}piperidine-1-carboxylate]
5.77	O=C(NCc1ccn2ccnc2c1)c1ccc(C2CCN(C(=O)N3CCCCC3)CC2)cc1 [Example 1068, N-(imidazo[1,2-a]pyridin-7-ylmethyl)-4-[1-(piperidin-1-ylcarbonyl)piperidin-4-yl]benzamide]
1.23	O=C(NCc1ccn2ccnc2c1)Nc1ccc(C2CCN(C(=O)c3ccccc3)CC2)cc1F [Example 1069, 1-[4-(1-benzoylpiperidin-4-yl)-2-fluorophenyl]-3-(imidazo[1,2-a]pyridin-7-ylmethyl)urea]
0.857	CC(C)(C)C(=O)N1CCC(c2ccc(NC(=O)NCc3ccn4ccnc4c3)c(F)c2)CC1 [Example 1070, 1-{4-[1-(2,2-dimethylpropanoyl)piperidin-4-yl]-2-fluorophenyl}-3-(imidazo[1,2-a]pyridin-7-ylmethyl)urea]
0.473	CC(C)(C)CC(=O)N1CCC(c2ccc(NC(=O)NCc3ccn4ccnc4c3)c(F)c2)CC1 [Example 1071, 1-{4-[1-(3,3-dimethylbutanoyl)piperidin-4-yl]-2-fluorophenyl}-3-(imidazo[1,2-a]pyridin-7-ylmethyl)urea]
6.24	CC(C)CCC(=O)N1CCC(c2ccc(NC(=O)NCc3ccn4ccnc4c3)c(F)c2)CC1 [Example 1072, 1-{2-fluoro-4-[1-(4-methylpentanoyl)piperidin-4-yl]phenyl}-3-(imidazo[1,2-a]pyridin-7-ylmethyl)urea]
3.88	CC[C@H](C)C(=O)N1CCC(c2ccc(NC(=O)NCc3ccn4ccnc4c3)c(F)c2)CC1 [Example 1073, 1-(2-fluoro-4-{1-[(2S)-2-methylbutanoyl]piperidin-4-yl}phenyl)-3-(imidazo[1,2-a]pyridin-7-ylmethyl)urea]
14.4	O=C(NCc1ccn2ccnc2c1)Nc1ccc(C2CCN(C(=O)C3CCOCC3)CC2)cc1F [Example 1074, 1-{2-fluoro-4-[1-(tetrahydro-2H-pyran-4-ylcarbonyl)piperidin-4-yl]phenyl}-3-(imidazo[1,2-a]pyridin-7-ylmethyl)urea]
7.62	O=C(NCc1ccn2ccnc2c1)Nc1ccc(C2CCN(C(=O)c3ccccn3)CC2)cc1F [Example 1075, 1-{2-fluoro-4-[1-(pyridin-2-ylcarbonyl)piperidin-4-yl]phenyl}-3-(imidazo[1,2-a]pyridin-7-ylmethyl)urea]
5.7	N#Cc1ccccc1C(=O)N1CCC(c2ccc(NC(=O)NCc3ccn4ccnc4c3)c(F)c2)CC1 [Example 1076, 1-{4-[1-(2-cyanobenzoyl)piperidin-4-yl]-2-fluorophenyl}-3-(imidazo[1,2-a]pyridin-7-ylmethyl)urea]
69.1	CN(C)C(=O)N1CCC(c2ccc(C(=O)NCc3ccn4ccnc4c3)cc2)CC1 [Example 1077, 4-{4-[(imidazo[1,2-a]pyridin-7-ylmethyl)carbamoyl]phenyl}-N,N-dimethylpiperidine-1-carboxamide]
7.61	CC(C)C(=O)N1CCC(c2ccc(NC(=O)NCc3ccn4ccnc4c3)c(F)c2)CC1 [Example 1078, 1-{2-fluoro-4-[1-(2-methylpropanoyl)piperidin-4-yl]phenyl}-3-(imidazo[1,2-a]pyridin-7-ylmethyl)urea]
18.2	O=C(CC1CCCC1)Nc1ccc(C(=O)NCc2cn3ccnc3cc2F)cc1 [Example 1079, 4-[(cyclopentylacetyl)amino]-N-[(7-fluoroimidazo[1,2-a]pyridin-6-yl)methyl]benzamide]
3.41	CC(C)Cn1cc(-c2ccc(C(=O)NCc3cn4ccnc4cc3F)s2)cn1 [Example 1080, N-[(7-fluoroimidazo[1,2-a]pyridin-6-yl)methyl]-5-[1-(2-methylpropyl)-1H-pyrazol-4-yl]thiophene-2-carboxamide]
195	O=C(Cc1ccn2ccnc2c1)Nc1ccc(C2CCN(C(=O)c3ccccc3)CC2)cc1F [Example 1081, N-[4-(1-benzoylpiperidin-4-yl)-2-fluorophenyl]-2-(imidazo[1,2-a]pyridin-7-yl)acetamide]
2.18	CC(C)(CN1CCNCC1)Cn1cc(-c2ccc(C(=O)NCc3ccn4ccnc4c3)s2)cn1 [Example 1082, 5-{1-[2,2-dimethyl-3-(piperazin-1-yl)propyl]-1H-pyrazol-4-yl}-N-(imidazo[1,2-a]pyridin-7-ylmethyl)thiophene-2-carboxamide]
0.92	CC(C)(CN)Cn1cc(-c2ccc(C(=O)NCc3ccn4ccnc4c3)s2)cn1 [Example 1083, 5-[1-(3-amino-2,2-dimethylpropyl)-1H-pyrazol-4-yl]-N-(imidazo[1,2-a]pyridin-7-ylmethyl)thiophene-2-carboxamide]
